Data on one compound can be found in patent US20220347085A1, “REPELLENT COMPOSITION AND USES” (Université Bourgogne, priority 2019, published 2022).

In the assay the test system is Bactrocera oleae. Nature of the assay: Courtship of male Bactrocera oleae towards females, olfactory exposure. The class given is in vivo. The protocol:
1. […] Insect Behay. 2012 [6] and Menage Cindy, personal communication). Naive males were isolated in tubes, individually, upon emerging from their puparium. The females were selected to be virgin and were stored in tubes, together. These tubes were placed in an inclined manner in incubators, for which a temperature of 25° C. was kept constant. A 12 hour/12 hour day/night cycle was applied. […] Each alveolus was cylindrical, transparent and closed, and of a volume of 5.9 cm^3. FIG. 16 is a schematic representation of an alveolus of the device used. • The papers were then each soaked in […] of a composition of 2%, 4% or 5% propionic acid. A gauze (netting) made it possible to physically isolate the B. ° lea from the odor corresponding to the propionic acid. 2 pairs (one per alveolus) were observed independently. Each pair was made up of one male and one female, each originating from the tubes mentioned above. • The behavior was filmed for 10 minutes, under white light, using a Basler acA1920-155 um USB 3.0 camera. Each film was recorded (Basler Video Recording Software V1.3) and then analyzed. For each concentration of the compositions used, the number of pairs of flies was, respectively, 2, 5, 2, 2, 2 and 6, 6, 4, 4. • A negative control was carried out comprising only the solvent, i.e. paraffin oil, in order to verify the absence of an effect of the solvent on the flies.
A courtship percentage was calculated, and represents the time during which the male courts the female during the 10 minutes of observation (recording). The different steps consist in movement of the wings (rapid “buzzing” and/or vertical vibrations), face movements, lateral movements, “dances” in rapid circles and in the direction of the female (Benelli, J. Insect Beahv 2012 [6] and Ménagé Cindy, personal communication).

Turning to `CCC(=O)O` [propionic acid], the “courtship of males towards females” value is, setting by setting: (2% in solvent, flies aged 3 to 6 days, compared with solvent alone) “significantly reduced”; (2% in solvent, flies aged 13 to 19 days, compared with solvent alone) “significantly reduced”; (4% in solvent, flies aged 3 to 6 days) “virtually nonexistent”; (5% in solvent, flies aged 3 to 6 days) “virtually nonexistent”; (5% in solvent, flies aged 13 to 19 days, compared with solvent alone) “significantly reduced”.
